# Source: patent US20240390529A1, “DUAL-MODE PROBE FOR DETECTING HYDROGEN SULFIDE AND USE THEREOF” (KYUNGPOOK NATIONAL UNIVERSITY INDUSTRY-ACADEMIC COOPERATION …, priority 2022, published 2024)
# What was measured:
# H2S in HeLa cells = experiment: Fluorescence imaging of exogenous and endogenous H2S in live HeLa cells; format: cell-based, human
# Excerpt: Next, we investigated the usefulness of Cu-ATSM-FITC(5) for monitoring H2S levels in living cells (FIG. 14).
# [1] = system: H2S concentration in brain tissues; experiment: Quantification of H2S in brain by methylene blue method; format: in vivo, mice
# Protocol: The methylene blue method was used to directly measure H2S concentration in brain tissues. Briefly, PET imaging was performed, brains were harvested, weighed, and homogenized in liquid N2. An ice-cold PBS solution in a volume equivalent to the weight of the homogenate (w/v, approximately 260 to 300 mg) was added, followed by vortex for 3 min and centrifugation (14,000 rpm, 5 min, 4° C.). Then, 100 μL of the supernatant was incubated together with 100 μL of 1% zinc acetate dihydrate at 37° C. for 10 minutes to immobilize H2S. 100 μL of 0.1 M sodium tetraborate buffer (pH 9) and 200 μL of 20 mM N, N-dimethyl-p-phenylenediamine sulfate were added to 7.2 M HCl, and 200 μL of 30 mM iron (III) chloride was added to 1.2 M HCl, and the mixture was incubated at 37° C. for 15 min to form methylene blue dyes. The mixture was centrifuged again (14,000 rpm, 5 minutes, 4° C.). 100 μL of supernatant was transferred in triplicate to 96-well plates, and absorbance was recorded spectrophotometrically at 670 nm. The H2S concentration was calculated by using a standard curve obtained by plotting absorbance (A670) versus NaHS concentration (0 to 30 μM). For quantification of H2S in the left and right hemispheres of the brains, PET imaging was performed, and only the cerebral hemispheres were harvested and processed separately. […]
# [2] = Optical properties (UV-Vis absorbance, fluorescence emission); format: physicochemical
# Protocol: The optical properties of the free ligand ATSM-FITC (4) were evaluated. […] When H2S sequestered Cu(II) ions from the copper complex (5) and precipitated CuS, the ATSM-FITC ligand was released and fluorescence was emitted (FIG. 7).
# [3] = Fluorescence response of probe to NaHS (sensitivity, reaction rate, detection limit)
# Protocol: To confirm the sensitivity, Cu-ATSM-FITC(5) was incubated with a wide range of NaHS concentrations (0-100 μM) at 37° C. and the fluorescence intensity was measured (FIG. 6B). […] When reacted with 50 μM NaHS solution, the fluorescence intensity of Cu-ATSM-FITC(5) reached a plateau within 30 seconds (FIG. 6C). In contrast, the reactivity of Cu-ATSM-FITC(5) toward L-cysteine (1 mM) and glutathione (GSH) (10 mM) was minimal, as compared to H2S, even though their concentrations were at least 20 times higher than H2S. The detection limit of Cu-ATSM-FITC(5) was calculated to be 0.20 μM using the regression equation (FIG. 8). The quantum yield was confirmed to be 0.33 according to the equation, as compared to the fluorescein standard value (FIG. 9).
# [4] = Selectivity toward competing biological species with and without H2S
# Excerpt: The selectivity of Cu-ATSM-FITC(5) was investigated against a variety of potentially competing biological species in the presence and absence of H2S (FIG. 6D).
# [5] = Fluorescence stability and reactivity at various pH; format: physicochemical; conditions: pH 5 to 10
# [6] = Measurement of quantum yield versus fluorescein standard; format: physicochemical; conditions: compared to the fluorescein standard value
# Protocol: The background levels of methanol used in the experiment were measured by using a SpectraMaxi-3 spectraphotometer, and Cu-ATSM-FITC(5) was measured at concentrations of 0.02, 0.04, 0.06, 0.08, and 0.1 μM. A fluorescein standard line graph was obtained according to the concentration and intensity of Cu-ATSM-FITC(5). The quantum yield was calculated according to the following equation: Φ=ΦST (Grad x/Grad ST) (η×2/ηST 2). Here, the subscripts ST and X represent the measured values of the standard and test solutions, respectively. In addition, Φ represents the quantum yield and η represents the refractive index of the solution.
# [7] = system: Human cervical cancer cells (HeLa); experiment: MTT cytotoxicity analysis, HeLa; format: cell-based
# Protocol: (§1) The cytotoxicity of Cu-ATSM-FITC(5) was evaluated through 3-(4,5-dimethyl-2-thiazolyl)-2,5-diphenyltetrazolium bromide (MTT; sigma-aldrich) analysis. Human cervical cancer cells (HeLa), human hepatoma cells (HepG2), and human embryonic kidney cells (HEK293) were prepared in 96-well plates at a density of 10,000 cells per well. As compared to the control group treated with PBS alone, they were treated with Cu-ATSM-FITC (5) at increasing concentrations of 1, 10, and 25 μM. Afterwards, they were incubated for 1, 4, and 24 hours (37° C., 5% CO2), respectively. For each treatment time, each well was added with 10 μL of MTT (5 mg/mL in PBS) solution and incubated for 3 hours. The supernatant was carefully aspirated, and the purple insoluble formazan crystals in the wells were dissolved using DMSO for 30 minutes. Absorbance was measured at 550 nm using a spectrophotometer (SPECTROstar Nano, BMG Labtech, Ortenberg, Germany). CuS was also performed four times in a similar manner by using HeLa, HEK293, HepG2, and human brain glioblastoma (U87MG) cells.
# [8] = system: human hepatoma cells (HepG2); experiment: MTT cytotoxicity analysis, HepG2; format: cell-based
# Protocol: as §1
# [9] = system: human embryonic kidney cells (HEK293); experiment: MTT cytotoxicity analysis, HEK293; format: cell-based
# Protocol: as §1
# mouse brain tissues = conditions: up to 7 days after injection of high-dose 500 μg; CuS precipitated
# Protocol: Animals were anesthetized by using isoflurane, and injected with 100 μg of Cu-ATSM-FITC(5) in 100 μL of 10% DMSO/PBS, and 500 μg of Cu-ATSM-FITC(5) in 100 μL of 40% DMSO/PBS, respectively, through tail vein injection. The animals were perfused transcardially with saline 1, 3, and 7 days after the injection. The brains were dissected, fixed in 4% paraformaldehyde, and embedded in paraffin to make blocks. Serial coronal sections in paraffin with the thickness of 7 μm were obtained. The sections were stained with H&E by using a staining kit (BBC ClearView, BBC Eosin Y Alcoholic). The stained brain tissues were photographed under a Carl Ziess microscope at 400× magnification.
# [10] = system: human brain glioblastoma (U87MG) cells; experiment: MTT cytotoxicity analysis, U87MG; format: cell-based
# Protocol: as §1
# [11] = Biodistribution in normal BALB/c mice (γ-counter); format: in vivo; conditions: 4 hours after administration
# Protocol: BALB/c mice (male, 9 weeks old) were used to investigate the systemic distribution and clearance rate of ^64Cu-ATSM-FITC (6). ^64Cu-ATSM-FITC (6) with a radioactivity of 0.56 to 0.74 MBq in a saline solution (5% DMSO, 200 μL) was injected into mice through the tail vein under anesthesia. […] Blood was drawn, and organs comprising heart, lung, muscle, fat, bone, spleen, kidney, liver, intestine, and brain were harvested, weighed, and analyzed by using a γ-counter (Wallac Wizard 1480, PerkinElmer, France). Radioactivity was calculated as percentage of injected dose per gram (% ID/g).
# The distribution of ^64Cu-ATSM-aniline in the body was confirmed by using the same method as described in Experimental Methods 5 and 7 above.
structure (smiles),measurement,setting,value
"C#CCC(N)C(=O)O (racemic) [DL-propargylglycine, reference compound]",green fluorescence due to endogenous H2S after CSE blockade,"H2S in HeLa cells; 450 μM, HeLa cells probed with Cu-ATSM-FITC(5)",completely reduced
Cl.NOCC(=O)O.NOCC(=O)O [AOAA],reduction of H2S concentration in the brain compared to controls,"[1]; 10 mg/kg intraperitoneal, mice",32%
same,H2S concentration in the brain,[1]; AOAA-treated mice,2.1±0.5 μg/g brain
"CNC(=S)N/N=C(C)/C(C)=N/NC(=S)Nc1ccc(-c2c3ccc(=O)cc-3oc3cc(O)ccc23)c(C(=O)O)c1 [ATSM-FITC (4), 2-(6-hydroxy-3-oxo-3H-xanthen-9-yl)-5-((E)-2-((E)-3-(2-(methylcarbamothioyl)hydrazono)butan-2-ylidene)hydrazinecarbothioamido)benzoic Acid]",absorbance band,[2]; UV-Vis spectroscopy,494 nm
same,maximum fluorescence emission,[2]; excitation at 480 nm,524 nm
"CNC([S-])=NN=C(C)C(C)=NN=C([S-])Nc1ccc(-c2c3ccc(=O)cc-3oc3cc(O)ccc23)c(C(=O)O)c1.[Cu+2] [Cu-ATSM-FITC(5), Copper(II) Complex of 2-(6-hydroxy-3-oxo-3H-xanthen-9-yl)-5-((E)-2-((E)-3-(2-(methylcarbamothioyl)hydrazono)butan-2-ylidene)hydrazinecarbothioamido)benzoic Acid]",fluorescence signal of the complex,[2]; without H2S,did not show a detectable fluorescence signal
same,time for fluorescence intensity to reach a plateau,[3]; 50 μM NaHS solution,≤ 30 s
same,fluorescence enhancement at 524 nm,"[3]; 100 μM NaHS compared to concentration 0, 37° C.",up to 3500 fold
same,reactivity toward L-cysteine and glutathione (GSH) compared to H2S,"[3]; L-cysteine 1 mM, GSH 10 mM",minimal
same,detection limit,"[3]; calculated using the regression equation, H2S",0.20 µM
same,fluorescence intensity with competing species plus NaHS,[4]; NaHS 50 μM added with other biologically abundant species,full fluorescence intensity was observed without interference
same,reactivity (fluorescence signals) with other species,"[4]; biothiols, inorganic sulfur species, reducing agents, nucleophiles, ROS/RNS, absence of H2S",did not show reactivity
same,stability and reactivity over physiological pH range,[5],high stability and reactivity
same,quantum yield,[6],0.33
same,survival rate of HeLa cells,"[7]; 1, 10, and 25 μM, 24 hours of incubation",exceeded 85%
same,cytotoxicity,[8],No cytotoxicity was observed
same,cytotoxicity,[9],No cytotoxicity was observed
same,detection of endogenous H2S induced by L-cysteine,H2S in HeLa cells; L-cysteine 100 μM,successfully detected the increase in endogenous H2S concentration
same,green fluorescence intensity in HeLa cells on addition of NaHS,H2S in HeLa cells; NaHS 50 and 100 μM,linear rise in green fluorescence intensity
same,fluorescence signal in HeLa cells,"H2S in HeLa cells; probe 25 μM, no added H2S",faint fluorescence signal
same,toxicity in mouse brain tissues (H&E staining),mouse brain tissues,low toxicity
"[S]=[Cu] [CuS, copper sulfide]",cytotoxicity,[7]; HeLa,no cytotoxicity was found
same,cytotoxicity,[8],no cytotoxicity was found
same,cytotoxicity,[9],no cytotoxicity was found
same,cytotoxicity,[10],no cytotoxicity was found
"CNC([S-])=NN=C(C)C(C)=NN=C([S-])Nc1ccc(N(C)C)cc1.[64Cu+2] [^64Cu-ATSM-aniline, reference compound]",distribution in the brain,[11],very low
same,organs of widest distribution,[11],lungs and liver
